Laboratory results as given in ChEMBL document CHEMBL1201862, “PubChem BioAssay data set” (2004).
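Protocol summary: plate cells (96-well), add compound at 5 concentrations, incubate 48 h, interpolate endpoints linearly. GI50 = concentration required for 50% inhibition of growth.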 Calls of active or inactive are those of the source. Cut-off read from the data, not from the text of the source: active = GI50 up to about 1.1 µM and inactive = higher.

Assays:
Experiment in all cases: NCI tumour cell line growth inhibition, 48 h
A498 = system: A498
ACHN = system: ACHN
DU-145 = system: DU-145
HCT-116 = system: HCT-116
IGROV-1 = system: IGROV-1
LOX IMVI = system: LOX IMVI
MCF7 = system: MCF7
MDA-MB-435 = system: MDA-MB-435
Malme-3M = system: Malme-3M
NCI-H460 = system: NCI-H460
NCI-H522 = system: NCI-H522
NCI/ADR-RES = system: NCI/ADR-RES
PC-3 = system: PC-3
RPMI-8226 = system: RPMI-8226
SK-MEL-5 = system: SK-MEL-5
SK-OV-3 = system: SK-OV-3
SNB-75 = system: SNB-75
T47D = system: T47D
UACC-62 = system: UACC-62
UO-31 = system: UO-31

Compound | GI50 (A498) | GI50 (ACHN) | GI50 (DU-145) | GI50 (HCT-116) | GI50 (IGROV-1) | GI50 (LOX IMVI) | GI50 (MCF7) | GI50 (MDA-MB-435) | GI50 (Malme-3M) | GI50 (NCI-H460) | GI50 (NCI-H522) | GI50 (NCI/ADR-RES) | GI50 (PC-3) | GI50 (RPMI-8226) | GI50 (SK-MEL-5) | GI50 (SK-OV-3) | GI50 (SNB-75) | GI50 (T47D) | GI50 (UACC-62) | GI50 (UO-31)
C=C(Cl)C(Cl)(CBr)CCC(Br)C(C)(C)Br (stereo not given) | 10.5 µM (inactive) | 2.62 µM (inactive) | 3.97 µM (inactive) | 1.74 µM (inactive) | 18.2 µM (inactive) | 15.3 µM (inactive) | 1.5 µM (inactive) | 9.44 µM (inactive) | 14.3 µM (inactive) | 1.72 µM (inactive) | 5.86 µM (inactive) | 5.66 µM (inactive) | 2.31 µM (inactive) | 0.426 µM (active) | 16.6 µM (inactive) | 17.2 µM (inactive) | 2.12 µM (inactive) | 2.25 µM (inactive) | 9.93 µM (inactive) | 8.17 µM (inactive)
COc1ccc2c(c1)c(=O)c1c(NCCN(C)C)ccc3c(=O)n(CCN(C)C)c(=O)n2c31 | 0.211 µM (active) | 0.0138 µM (active) | 0.0883 µM (active) | < 0.014 µM (active) | < 0.0232 µM (active) | 0.104 µM (active) | 0.0368 µM (active) | 0.117 µM (active) | 0.29 µM (active) | < 0.01 µM (active) | 0.0762 µM (active) | 0.109 µM (active) | 0.0925 µM (active) | 0.0323 µM (active) | 0.126 µM (active) | 0.55 µM (active) | 0.173 µM (active) | 0.372 µM (active) | 0.156 µM (active) | 0.163 µM (active)
CC(C(=O)OCc1ccccc1)(c1ccco1)N1C(=O)OC(c2ccccc2)C1c1ccccc1 (stereo not given) | > 59.8 µM (inactive) | > 100 µM (inactive) | > 100 µM (inactive) | > 100 µM (inactive) | > 100 µM (inactive) | 14.7 µM (inactive) | > 100 µM (inactive) | > 100 µM (inactive) | > 100 µM (inactive) | 26.1 µM (inactive) | > 100 µM (inactive) | > 100 µM (inactive) | 6.01 µM (inactive) | 4.37 µM (inactive) | > 30.1 µM (inactive) | > 100 µM (inactive) | > 100 µM (inactive) | 5.96 µM (inactive) | 97.1 µM (inactive) | 6.34 µM (inactive)
[N-]=[N+]=CC(=O)COC(=O)c1ccccc1 | > 100 µM (inactive) | > 100 µM (inactive) | > 100 µM (inactive) | > 100 µM (inactive) | > 100 µM (inactive) | > 100 µM (inactive) | 88.5 µM (inactive) | > 100 µM (inactive) | > 100 µM (inactive) | > 100 µM (inactive) | > 100 µM (inactive) | > 100 µM (inactive) | > 100 µM (inactive) | 74.1 µM (inactive) | > 100 µM (inactive) | > 100 µM (inactive) | > 100 µM (inactive) | > 100 µM (inactive) | > 100 µM (inactive) | > 100 µM (inactive)
Fc1ccc2nc3n(c2c1)C(c1c(Cl)cccc1Cl)SC3 (stereo not given) | > 100 µM (inactive) | > 100 µM (inactive) | > 100 µM (inactive) | > 100 µM (inactive) | > 100 µM (inactive) | > 100 µM (inactive) | > 100 µM (inactive) | > 100 µM (inactive) | > 100 µM (inactive) | > 100 µM (inactive) | 29.4 µM (inactive) | > 100 µM (inactive) | > 100 µM (inactive) | > 100 µM (inactive) | > 100 µM (inactive) | > 100 µM (inactive) | 63.4 µM (inactive) | > 100 µM (inactive) | > 100 µM (inactive) | > 100 µM (inactive)
NC(=O)c1ccc2c(c1)S(=O)(=O)c1ccccc1C2=O | > 100 µM (inactive) | > 100 µM (inactive) | > 100 µM (inactive) | > 100 µM (inactive) | > 100 µM (inactive) | > 100 µM (inactive) | > 100 µM (inactive) | > 100 µM (inactive) | > 100 µM (inactive) | > 100 µM (inactive) | > 100 µM (inactive) | > 100 µM (inactive) | > 100 µM (inactive) | > 100 µM (inactive) | > 100 µM (inactive) | 75 µM (inactive) | 46.8 µM (inactive) | > 100 µM (inactive) | > 100 µM (inactive) | > 100 µM (inactive)
O=C(O)/C(Cc1c[nH]nn1)=N\O | > 100 µM (inactive) | > 100 µM (inactive) | > 100 µM (inactive) | > 100 µM (inactive) | > 100 µM (inactive) | > 100 µM (inactive) | > 100 µM (inactive) | > 100 µM (inactive) | > 100 µM (inactive) | > 100 µM (inactive) | > 100 µM (inactive) | > 100 µM (inactive) | > 100 µM (inactive) | > 100 µM (inactive) | > 100 µM (inactive) | > 100 µM (inactive) | > 100 µM (inactive) | > 100 µM (inactive) | > 100 µM (inactive) | > 100 µM (inactive)
COc1ccc2cc(C(=O)CCC(=O)O)ccc2c1 | > 100 µM (inactive) | > 100 µM (inactive) | > 100 µM (inactive) | > 100 µM (inactive) | > 100 µM (inactive) | > 100 µM (inactive) | > 100 µM (inactive) | > 100 µM (inactive) | > 100 µM (inactive) | > 100 µM (inactive) | > 100 µM (inactive) | > 100 µM (inactive) | > 100 µM (inactive) | > 100 µM (inactive) | > 100 µM (inactive) | > 100 µM (inactive) | 50.1 µM (inactive) | > 100 µM (inactive) | > 100 µM (inactive) | > 100 µM (inactive)
